Test results from PubChem BioAssay (NCI).
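In this assay, cells in 96-well plates receive the compound at five concentrations for 48 hours. Endpoints are linearly interpolated between the surrounding concentrations. GI50: concentration for 50% inhibition of growth. TGI: total growth inhibition.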

What was measured:
Test in all cases: DTP human tumour cell line panel, 48 h
BT-549 breast = tested on: BT-549 breast
EKVX NSCLC = tested on: EKVX NSCLC
K-562 leukemia = tested on: K-562 leukemia
M14 melanoma = tested on: M14 melanoma
MDA-MB-435 = tested on: MDA-MB-435
MOLT-4 leukemia = tested on: MOLT-4 leukemia
NCI-H23 lung = tested on: NCI-H23 lung
SF-539 CNS = tested on: SF-539 CNS
SR leukemia = tested on: SR leukemia
UACC-257 melanoma = tested on: UACC-257 melanoma

| Structure (SMILES) | TGI (BT-549 breast) [µM] | TGI (EKVX NSCLC) [µM] | TGI (K-562 leukemia) [µM] | TGI (M14 melanoma) [µM] | TGI (MDA-MB-435) [µM] | TGI (MOLT-4 leukemia) [µM] | TGI (NCI-H23 lung) [µM] | TGI (SF-539 CNS) [µM] | TGI (SR leukemia) [µM] | TGI (UACC-257 melanoma) [µM] | GI50 (BT-549 breast) [µM] | GI50 (EKVX NSCLC) [µM] | GI50 (K-562 leukemia) [µM] | GI50 (M14 melanoma) [µM] | GI50 (MDA-MB-435) [µM] | GI50 (MOLT-4 leukemia) [µM] | GI50 (NCI-H23 lung) [µM] | GI50 (SF-539 CNS) [µM] | GI50 (SR leukemia) [µM] | GI50 (UACC-257 melanoma) [µM] |
| --- | --- | --- | --- | --- | --- | --- | --- | --- | --- | --- | --- | --- | --- | --- | --- | --- | --- | --- | --- | --- |
| COc1cc2c(cc1O)C(Cc1ccc(OCc3ccccc3)c(OCc3ccccc3)c1)N(C(=O)NCCc1ccccc1)CC2 (stereo not given) | > 100 | > 100 | > 100 | > 100 | > 100 | > 100 | > 100 | > 100 | > 100 | > 100 |  |  |  |  |  |  |  |  |  |  |
| COC(=O)[C@H](C)NC(=O)[C@H](NS(=O)(=O)c1nc2ccccc2s1)c1ccccc1 | > 100 | > 100 | > 100 | 22.9 | > 100 | > 100 | > 100 | 30.4 | > 100 | 26.3 |  |  |  |  |  |  |  |  |  |  |
| COC(=O)CCC(C)[C@H]1CCC2C3CC[C@@H]4CC5(CC[C@]4(C)C3C[C@H](OC(C)=O)[C@@]21C)OOC1(CCCCC1)OO5 (stereo not given in full) | > 100 | 7.37 | > 100 | > 100 | 37 | > 100 | > 100 | > 100 | > 100 | > 100 |  |  |  |  |  |  |  |  |  |  |
| N#Cc1cc(F)cc(Oc2ccc(S(=O)(=O)C(F)F)c3c2CC(F)(F)[C@H]3O)c1 | > 100 | > 100 | > 100 | > 100 | > 100 | > 100 | > 100 | > 100 | > 100 | 79.1 | 22.3 | 25.3 | 27.1 | 30.1 | 37.7 | 27.6 | 27.6 | 37 | 36 | 24.6 |
| Cc1ccc(C(=O)Nc2ccc(CP(=O)(O)O)cc2CP(=O)(O)O)cc1N | > 100 | > 100 | > 100 | > 100 | > 100 | > 100 | > 100 | > 100 | > 100 | > 100 |  |  |  |  |  |  |  |  |  |  |
| Cc1nnc(SCc2nc(C#N)c(C#N)nc2CSc2nnc(C)s2)s1 | 36.3 | 36.5 | > 52.3 | 37.6 | 26.4 | 12.9 | 45 | 40.9 | 51.4 | 28.3 |  |  |  |  |  |  |  |  |  |  |
| NC(=O)CSc1nc2ccccc2c(=O)n1N | > 100 | > 100 | > 100 | > 100 | > 100 | > 100 | > 100 | > 100 | > 100 | > 100 |  |  |  |  |  |  |  |  |  |  |
| O=C(O)[C@H]1NC[C@H]2C(Br)=NO[C@@H]12 | > 100 | > 100 | > 100 | > 100 | > 100 | > 100 | > 100 | > 100 | > 100 | > 100 |  |  |  |  |  |  |  |  |  |  |
| O=S(Nc1ccccc1)c1ccc(Cl)cc1 (stereo not given) | > 100 | > 100 | > 100 | > 100 | > 100 | > 100 | > 100 | 46.7 | > 100 | > 100 |  |  |  |  |  |  |  |  |  |  |
